Values after ≈ are worked out from the molar mass of the structure shown.
Tests used:
Format in all cases: functional, cell-based
A549 = experiment: Cytotoxicity against human A549 cells
HT-29 = experiment: Cytotoxicity against human HT29 cells
P388 = experiment: Cytotoxicity against mouse P388 cells
Bel-7402 = experiment: Cytotoxicity against human BEL-7402 cells

## COC(=O)[C@H](CCCC(C)C)[C@H]1CC[C@H]2[C@@H]3CC[C@H]4CC(=O)C=C[C@]4(C)[C@H]3CC[C@]12C [METHYL SPONGOATE]
A549
  IC50: 5 µg/mL (≈ 11.7 µM)
HT-29
  IC50: 5 µg/mL (≈ 11.7 µM)
P388
  IC50: 3.8 µg/mL (≈ 8.86 µM)
Bel-7402
  IC50: 0.14 µg/mL (≈ 0.327 µM)

From ChEMBL document CHEMBL1139185, “Methyl spongoate, a cytotoxic steroid from the Sanya soft coral Spongodes sp” (Bioorg Med Chem Lett, 2007)
